According to ChEMBL document CHEMBL1201862, “PubChem BioAssay data set” (2004):
Active and inactive are the calls of the source.

Experiments:
[1] = biological target: Epstein-Barr nuclear antigen 1 (Epstein-Barr virus (strain B95-8) (HHV-4) (Human herpesvirus 4), UniProt P03211); experiment: inhibition of EBV nuclear antigen 1 DNA binding – biochemical, fluorescence polarization, 1536-well, dose response (AID 2381); design: species or system human gammaherpesvirus 4;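 further: fluorescence polarization of a Cy5 DNA probe bound by EBNA-1 protein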
[2] = biological target: Sphingosine 1-phosphate receptor 4 (Homo sapiens, UniProt O95977); experiment: Late-stage fluorescence dose response cell-based assay to identify agonists of the Sphingosine 1-Phosphate Receptor 4 (S1P4): purchased compounds EC50. [Related pubchem assays (depositor defined):AID1509, AID1523, AID1563, AID1686, AID1701, AID1801]; assay type: functional
[3] = biological target: Lytic switch protein BZLF1 (Epstein-Barr virus (strain B95-8) (HHV-4) (Human herpesvirus 4), UniProt P03206); experiment: inhibition of BZLF1 ZTA DNA binding – biochemical, fluorescence polarization, Epstein-Barr virus, 1536-well, counter-screen for EBNA-1 inhibitor project, dose response (AID 2377); design: species or system human gammaherpesvirus 4;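 further: fluorescence polarization of Cy5-labelled ZRE DNA probe bound by purified Zta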
[4] = biological target: T1, Intestinal-type alkaline phosphatase (Homo sapiens, UniProt P09923); experiment: human intestinal alkaline phosphatase activators, dose response, biochemical, luminescence, uHTS hits (AID 463120); assay type: functional
[5] = biological target: T1, Intestinal-type alkaline phosphatase; experiment: Dose Response confirmation of uHTS hits from a small molecule inhibitors of human intestinal alkaline phosphatase via a luminescent assay. [Related pubchem assays (depositor defined):AID2544, AID2574]; assay type: functional
[6] = PhoP promoter GFP reporter reduction in Typhimurium – purified and synthesized compounds, set 2, PhoP regulon inhibitor project, dose response (AID 2831); assay type: functional
Ion channel NompC = Ion channel NompC (Danio rerio, UniProt Q7T1G6); experiment: Dose response cell-based high-throughput screening assay for agonists of the transient receptor potential channel N1 (TRPN1). [Related pubchem assays (depositor defined):AID1424, AID1448]; assay type: functional
Mucolipin-3 = Mucolipin-3 (Homo sapiens, UniProt Q8TDD5); experiment: Fluorescence counterscreen assay for […] agonists: dose response cell-based high-throughput screening assay to identify agonists of the transient receptor potential channel ML3 (TRPML3). [Related pubchem assays: 1424, 1448 ]; assay type: functional
[7] = biological target: T2, Corticotropin-releasing factor receptor 2/Corticotropin-releasing factor-binding protein (Homo sapiens, UniProt P24387+Q13324); experiment: activators of CRF receptor 2 with binding protein – uHTS hits, confirmation (AID 602473); assay type: functional; conditions: read-out: EC50_Mean
T2 sequence (Q13324 whole entry): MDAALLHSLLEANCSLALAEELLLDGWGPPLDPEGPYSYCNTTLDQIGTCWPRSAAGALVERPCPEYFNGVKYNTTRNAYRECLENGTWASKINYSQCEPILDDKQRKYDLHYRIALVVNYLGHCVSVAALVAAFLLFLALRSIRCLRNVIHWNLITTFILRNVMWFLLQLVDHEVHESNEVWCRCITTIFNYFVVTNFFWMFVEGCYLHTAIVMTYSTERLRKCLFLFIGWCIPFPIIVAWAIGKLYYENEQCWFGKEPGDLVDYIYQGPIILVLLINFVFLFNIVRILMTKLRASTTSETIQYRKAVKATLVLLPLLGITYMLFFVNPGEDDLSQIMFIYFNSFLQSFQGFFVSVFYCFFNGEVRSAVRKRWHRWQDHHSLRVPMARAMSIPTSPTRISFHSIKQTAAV
T2 sequence (P24387 whole entry): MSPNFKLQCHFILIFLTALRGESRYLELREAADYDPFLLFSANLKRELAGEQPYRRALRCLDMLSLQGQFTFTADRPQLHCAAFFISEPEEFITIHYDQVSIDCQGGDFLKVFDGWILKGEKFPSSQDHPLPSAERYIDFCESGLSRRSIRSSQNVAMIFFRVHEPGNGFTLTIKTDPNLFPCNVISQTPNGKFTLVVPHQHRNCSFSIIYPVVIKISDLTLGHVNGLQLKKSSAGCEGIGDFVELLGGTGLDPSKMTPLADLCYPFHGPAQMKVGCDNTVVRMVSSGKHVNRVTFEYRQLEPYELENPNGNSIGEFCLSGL

Vero = experiment: cells; assay type: functional; conditions: Chlorocebus sabaeus
[8] = biological target: Induced myeloid leukemia cell differentiation protein Mcl-1 (Homo sapiens, UniProt Q07820); assay type: functional
SUMO-activating enzyme [9] = biological target: T3, SUMO-activating enzyme (Homo sapiens, UniProt Q9UBT2); experiment: blockers of SAE1/SAE2–UBC9 SUMO transfer – biochemical, HTRF, uHTS, primary screen (AID 2006); assay type: protein-complex assay
[10] = biological target: T4, RNA-binding protein pos-1 (Caenorhabditis elegans, UniProt G5EF15); experiment: disruptors of C. elegans POS-1 RNA interaction – biochemical, fluorescence polarization, dose response (AID 1964);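 further: purified POS-1 fused to maltose binding protein made in E. coli; potency of compounds blocking POS-1 binding to fluorescent RNA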
T4 sequence (G5EF15 whole entry): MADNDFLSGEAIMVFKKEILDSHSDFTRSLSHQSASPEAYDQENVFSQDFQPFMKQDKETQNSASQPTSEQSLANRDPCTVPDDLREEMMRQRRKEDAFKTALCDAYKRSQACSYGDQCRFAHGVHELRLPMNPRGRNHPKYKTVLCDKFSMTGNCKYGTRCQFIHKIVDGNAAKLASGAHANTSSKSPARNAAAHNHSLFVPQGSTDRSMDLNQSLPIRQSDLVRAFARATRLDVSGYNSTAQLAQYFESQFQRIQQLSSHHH

SUMO-activating enzyme [11] = biological target: T3, SUMO-activating enzyme; experiment: blockers of UBC9-mediated SUMO conjugation – biochemical, AlphaScreen, SUMOylation inhibitor project, confirmation (AID 2018); assay type: functional
[12] = biological target: T5, Voltage-gated N-type calcium channel alpha-1B subunit/Amyloid beta A4 precursor protein-binding family A member 1 (Homo sapiens, UniProt Q00975+Q02410); assay type: protein assay
[13] = biological target: T5, Voltage-gated N-type calcium channel alpha-1B subunit/Amyloid beta A4 precursor protein-binding family A member 1; assay type: protein assay; remark: listed apart in the source
[14] = biological target: T6, Zinc finger protein mex-5 (Caenorhabditis elegans, UniProt Q9XUB2); experiment: potency of MEX-5 RNA-binding blockers – biochemical, C. elegans, fluorescence polarization, dose response (AID 1960)
T6 sequence (Q9XUB2 whole entry): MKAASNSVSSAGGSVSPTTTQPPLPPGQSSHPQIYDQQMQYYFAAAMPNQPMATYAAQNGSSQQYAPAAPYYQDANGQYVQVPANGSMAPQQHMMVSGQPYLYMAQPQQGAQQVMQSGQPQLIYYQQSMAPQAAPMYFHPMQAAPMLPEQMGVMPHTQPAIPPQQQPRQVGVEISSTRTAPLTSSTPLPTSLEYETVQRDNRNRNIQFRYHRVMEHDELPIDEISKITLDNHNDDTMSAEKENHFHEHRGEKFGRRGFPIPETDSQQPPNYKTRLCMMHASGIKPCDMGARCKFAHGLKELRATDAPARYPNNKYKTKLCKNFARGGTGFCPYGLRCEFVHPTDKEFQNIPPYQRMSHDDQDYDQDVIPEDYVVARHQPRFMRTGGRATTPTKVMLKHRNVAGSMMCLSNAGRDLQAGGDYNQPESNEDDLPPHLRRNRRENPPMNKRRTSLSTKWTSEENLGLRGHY

T1 sequence (P09923 whole entry): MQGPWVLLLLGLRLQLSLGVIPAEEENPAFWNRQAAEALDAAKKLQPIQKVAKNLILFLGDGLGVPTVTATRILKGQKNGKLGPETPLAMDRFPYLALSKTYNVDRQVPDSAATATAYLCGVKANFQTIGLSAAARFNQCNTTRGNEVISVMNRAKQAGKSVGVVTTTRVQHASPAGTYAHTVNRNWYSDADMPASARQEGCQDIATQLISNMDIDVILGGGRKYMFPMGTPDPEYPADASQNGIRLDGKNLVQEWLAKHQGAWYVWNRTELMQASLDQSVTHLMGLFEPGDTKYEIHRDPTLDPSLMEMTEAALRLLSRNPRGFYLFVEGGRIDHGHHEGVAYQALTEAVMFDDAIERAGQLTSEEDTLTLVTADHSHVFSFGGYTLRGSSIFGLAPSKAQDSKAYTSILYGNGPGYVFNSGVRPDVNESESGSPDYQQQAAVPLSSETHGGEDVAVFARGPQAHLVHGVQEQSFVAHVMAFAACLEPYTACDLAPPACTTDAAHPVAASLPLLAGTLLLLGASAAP
T5 sequence (Q00975 whole entry): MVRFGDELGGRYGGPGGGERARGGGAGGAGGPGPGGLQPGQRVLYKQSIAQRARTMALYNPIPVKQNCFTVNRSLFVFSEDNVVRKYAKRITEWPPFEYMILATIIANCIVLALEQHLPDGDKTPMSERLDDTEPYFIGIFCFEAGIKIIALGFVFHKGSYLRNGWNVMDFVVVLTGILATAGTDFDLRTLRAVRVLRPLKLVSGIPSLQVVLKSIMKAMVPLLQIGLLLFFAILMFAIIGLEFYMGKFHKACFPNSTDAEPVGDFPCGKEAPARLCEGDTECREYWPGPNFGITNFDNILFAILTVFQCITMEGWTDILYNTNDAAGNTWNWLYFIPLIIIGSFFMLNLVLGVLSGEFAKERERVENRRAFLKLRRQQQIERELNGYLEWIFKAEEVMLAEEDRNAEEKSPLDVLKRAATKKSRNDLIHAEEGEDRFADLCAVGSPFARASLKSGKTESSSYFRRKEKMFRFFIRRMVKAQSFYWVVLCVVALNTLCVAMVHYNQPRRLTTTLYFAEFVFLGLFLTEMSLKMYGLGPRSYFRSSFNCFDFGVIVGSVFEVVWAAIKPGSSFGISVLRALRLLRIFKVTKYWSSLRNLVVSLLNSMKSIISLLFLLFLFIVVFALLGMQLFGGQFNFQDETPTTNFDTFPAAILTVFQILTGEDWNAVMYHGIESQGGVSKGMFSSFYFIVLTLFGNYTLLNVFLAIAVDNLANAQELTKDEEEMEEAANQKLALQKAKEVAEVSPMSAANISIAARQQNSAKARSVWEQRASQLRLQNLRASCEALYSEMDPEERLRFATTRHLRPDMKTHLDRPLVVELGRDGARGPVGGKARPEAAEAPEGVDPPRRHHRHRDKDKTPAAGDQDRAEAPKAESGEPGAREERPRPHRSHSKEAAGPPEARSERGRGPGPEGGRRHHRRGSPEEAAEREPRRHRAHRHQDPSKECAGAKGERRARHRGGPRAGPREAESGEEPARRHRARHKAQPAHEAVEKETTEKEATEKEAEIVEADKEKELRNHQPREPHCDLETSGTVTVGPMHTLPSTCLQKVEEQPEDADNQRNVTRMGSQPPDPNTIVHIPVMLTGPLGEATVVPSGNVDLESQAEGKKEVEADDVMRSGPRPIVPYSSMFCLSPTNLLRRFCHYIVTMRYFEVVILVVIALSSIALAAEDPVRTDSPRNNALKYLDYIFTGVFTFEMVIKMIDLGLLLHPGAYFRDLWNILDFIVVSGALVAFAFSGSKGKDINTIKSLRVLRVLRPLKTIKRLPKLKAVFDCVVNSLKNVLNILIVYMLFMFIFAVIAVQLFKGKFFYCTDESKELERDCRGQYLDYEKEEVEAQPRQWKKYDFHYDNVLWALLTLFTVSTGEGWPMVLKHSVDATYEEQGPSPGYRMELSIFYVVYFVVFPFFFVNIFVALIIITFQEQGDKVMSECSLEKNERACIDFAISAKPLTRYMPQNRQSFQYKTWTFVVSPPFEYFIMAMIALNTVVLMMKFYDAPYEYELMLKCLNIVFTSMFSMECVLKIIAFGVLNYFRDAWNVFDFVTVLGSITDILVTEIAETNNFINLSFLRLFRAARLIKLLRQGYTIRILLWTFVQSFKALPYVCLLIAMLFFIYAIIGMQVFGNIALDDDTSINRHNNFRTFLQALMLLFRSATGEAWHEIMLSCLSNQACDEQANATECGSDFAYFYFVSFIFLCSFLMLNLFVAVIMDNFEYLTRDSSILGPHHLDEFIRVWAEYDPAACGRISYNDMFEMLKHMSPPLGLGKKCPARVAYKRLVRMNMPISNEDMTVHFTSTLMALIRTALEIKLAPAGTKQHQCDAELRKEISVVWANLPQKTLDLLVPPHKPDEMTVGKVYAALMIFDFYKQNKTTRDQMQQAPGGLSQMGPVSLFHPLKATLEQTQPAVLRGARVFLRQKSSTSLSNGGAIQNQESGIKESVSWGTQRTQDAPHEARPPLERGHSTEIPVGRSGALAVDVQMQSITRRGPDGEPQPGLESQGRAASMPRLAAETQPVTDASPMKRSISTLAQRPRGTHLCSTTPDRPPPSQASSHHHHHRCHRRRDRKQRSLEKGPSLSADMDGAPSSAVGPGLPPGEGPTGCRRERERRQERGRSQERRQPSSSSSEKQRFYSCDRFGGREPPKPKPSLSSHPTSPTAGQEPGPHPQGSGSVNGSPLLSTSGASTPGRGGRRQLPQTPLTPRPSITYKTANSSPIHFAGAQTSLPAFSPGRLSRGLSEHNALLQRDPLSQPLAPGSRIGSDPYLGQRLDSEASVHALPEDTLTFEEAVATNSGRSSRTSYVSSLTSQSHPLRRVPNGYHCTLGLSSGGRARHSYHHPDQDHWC
T5 sequence (Q02410 whole entry): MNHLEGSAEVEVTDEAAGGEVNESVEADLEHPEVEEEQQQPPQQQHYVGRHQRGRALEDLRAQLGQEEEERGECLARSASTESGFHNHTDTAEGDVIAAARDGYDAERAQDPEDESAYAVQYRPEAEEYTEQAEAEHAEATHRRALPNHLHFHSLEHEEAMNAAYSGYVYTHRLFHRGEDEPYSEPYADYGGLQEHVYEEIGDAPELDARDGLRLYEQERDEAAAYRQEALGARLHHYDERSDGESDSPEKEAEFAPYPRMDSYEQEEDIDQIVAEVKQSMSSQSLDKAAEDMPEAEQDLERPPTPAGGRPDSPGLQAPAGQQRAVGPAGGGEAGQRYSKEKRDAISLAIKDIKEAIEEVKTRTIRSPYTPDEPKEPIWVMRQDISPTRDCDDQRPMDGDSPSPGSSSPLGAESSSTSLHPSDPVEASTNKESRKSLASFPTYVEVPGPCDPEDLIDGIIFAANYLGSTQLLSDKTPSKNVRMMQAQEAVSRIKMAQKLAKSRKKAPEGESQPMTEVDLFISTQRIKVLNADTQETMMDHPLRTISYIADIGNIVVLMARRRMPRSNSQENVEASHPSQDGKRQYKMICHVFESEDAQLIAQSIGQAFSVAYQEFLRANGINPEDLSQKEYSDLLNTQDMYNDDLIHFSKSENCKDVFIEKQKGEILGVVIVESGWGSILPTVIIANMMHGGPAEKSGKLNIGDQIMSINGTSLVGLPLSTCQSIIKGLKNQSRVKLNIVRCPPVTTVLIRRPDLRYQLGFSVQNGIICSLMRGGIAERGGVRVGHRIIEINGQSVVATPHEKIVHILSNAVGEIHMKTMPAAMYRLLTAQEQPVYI
T3 sequence (Q9UBE0 whole entry, the tested form may be a part): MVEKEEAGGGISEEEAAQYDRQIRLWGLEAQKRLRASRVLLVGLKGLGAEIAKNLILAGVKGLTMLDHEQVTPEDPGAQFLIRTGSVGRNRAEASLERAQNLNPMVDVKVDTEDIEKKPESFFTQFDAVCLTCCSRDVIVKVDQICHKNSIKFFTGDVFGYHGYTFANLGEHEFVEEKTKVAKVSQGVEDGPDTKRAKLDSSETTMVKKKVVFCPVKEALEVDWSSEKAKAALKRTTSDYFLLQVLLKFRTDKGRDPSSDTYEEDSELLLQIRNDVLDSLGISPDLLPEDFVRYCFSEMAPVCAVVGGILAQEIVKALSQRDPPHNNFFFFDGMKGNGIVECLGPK
T3 sequence (Q9UBT2 whole entry, the tested form may be a part): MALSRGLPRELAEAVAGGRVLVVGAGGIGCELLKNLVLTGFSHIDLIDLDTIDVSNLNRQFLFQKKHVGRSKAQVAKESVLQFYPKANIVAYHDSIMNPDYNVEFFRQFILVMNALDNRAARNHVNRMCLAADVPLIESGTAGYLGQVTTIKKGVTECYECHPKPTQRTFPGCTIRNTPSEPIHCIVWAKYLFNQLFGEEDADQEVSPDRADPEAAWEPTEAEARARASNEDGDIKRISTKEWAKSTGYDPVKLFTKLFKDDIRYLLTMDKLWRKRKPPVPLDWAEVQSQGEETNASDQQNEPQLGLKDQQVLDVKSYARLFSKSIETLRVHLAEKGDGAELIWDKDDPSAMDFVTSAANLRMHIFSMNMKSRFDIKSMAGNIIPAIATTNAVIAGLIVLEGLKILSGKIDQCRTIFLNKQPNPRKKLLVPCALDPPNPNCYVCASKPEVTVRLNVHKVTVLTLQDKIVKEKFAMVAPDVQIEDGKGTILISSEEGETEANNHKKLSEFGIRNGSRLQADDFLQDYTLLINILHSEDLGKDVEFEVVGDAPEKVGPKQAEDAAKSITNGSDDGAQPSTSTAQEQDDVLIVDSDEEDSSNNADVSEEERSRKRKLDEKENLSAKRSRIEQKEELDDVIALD
Lytic switch protein BZLF1, sequence (P03206 whole entry): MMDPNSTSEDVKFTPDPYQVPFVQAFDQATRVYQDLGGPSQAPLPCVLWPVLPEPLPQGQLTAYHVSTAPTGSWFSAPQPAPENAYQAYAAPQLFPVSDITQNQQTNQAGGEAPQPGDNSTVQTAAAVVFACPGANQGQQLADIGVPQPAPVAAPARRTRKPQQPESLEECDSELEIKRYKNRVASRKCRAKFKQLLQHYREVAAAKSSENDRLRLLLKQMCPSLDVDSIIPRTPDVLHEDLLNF

Cc1nn(Cc2ccccc2)c(Cl)c1C(=O)OC(C)C(=O)Nc1ccc(F)cc1Cl (configuration not stated)
IC50 [1]: 5.89 µM (active)
EC50 [2]: > 50 µM (inactive)
IC50 [3]: > 111 µM (not active)

CC1(C)C[C@@H](O)CC2(C1)C[C@]1(C)CC(O)[C@H]2C(C)(C)C1 (some centres not stated)
EC50 [4]: > 100 µM (inactive)
IC50 [5]: > 100 µM (inactive)

O=C1C2=C(Nc3ccccc3SC2c2cccc(Cl)c2)c2ccccc21 (configuration not stated)
IC50 [6]: > 150 µM (active)

Cc1ccc(S(=O)(=O)Nc2ccc(NC(=O)c3c(F)c(F)c(F)c(F)c3F)cc2)cc1
EC50 (Ion channel NompC): > 29.9 µM (inactive)
EC50 (Mucolipin-3): > 29.9 µM (not active)
EC50 [7]: 5.66 µM (active)
CC50 (Vero): 23 µM (active)

COc1cc(OC)c2c(O)c3c(c(-c4c5c(c(O)c6c(OC)cc(OC)cc46)CO[C@@H](C)[C@H]5O)c2c1)[C@H](O)[C@H](C)OC3
IC50 [8]: 2.51 µM (not active)
IC50 (SUMO-activating enzyme [9]): 17.1 µM (active)
EC50 [10]: > 300 µM (not active)
IC50 (SUMO-activating enzyme [11]): 6.03 µM (active)
IC50 [12]: 20.3 µM (active)
IC50 [13]: 4.27 µM (active)
EC50 [14]: > 300 µM (not active)
